Source: ChEMBL document CHEMBL1201862, “PubChem BioAssay data set” (2004)
“And” between values parts separate entries of the source, which are not always exact repeats. Equal entries are not always repeated. The source made the active and inactive calls.

Columns and labels:
[1] = target: T1, Dual specificity protein phosphatase 6 (Rattus norvegicus, UniProt Q64346); assay type: functional
T1 sequence (Q64346 whole entry): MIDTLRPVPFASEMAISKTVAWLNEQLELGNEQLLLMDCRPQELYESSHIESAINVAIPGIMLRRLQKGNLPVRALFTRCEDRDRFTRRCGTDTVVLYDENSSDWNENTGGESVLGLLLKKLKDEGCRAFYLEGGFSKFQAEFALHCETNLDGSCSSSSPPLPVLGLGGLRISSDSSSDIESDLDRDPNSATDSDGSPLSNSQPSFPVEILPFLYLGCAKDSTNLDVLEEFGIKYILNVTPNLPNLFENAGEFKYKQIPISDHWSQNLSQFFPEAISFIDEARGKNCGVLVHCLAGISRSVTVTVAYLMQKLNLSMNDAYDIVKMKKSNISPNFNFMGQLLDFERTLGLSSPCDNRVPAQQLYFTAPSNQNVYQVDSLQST

[2] = target: Glyceraldehyde-3-phosphate dehydrogenase (Homo sapiens, UniProt P04406)
Glyceraldehyde-3-phosphate dehydrogenase, sequence (P04406 whole entry): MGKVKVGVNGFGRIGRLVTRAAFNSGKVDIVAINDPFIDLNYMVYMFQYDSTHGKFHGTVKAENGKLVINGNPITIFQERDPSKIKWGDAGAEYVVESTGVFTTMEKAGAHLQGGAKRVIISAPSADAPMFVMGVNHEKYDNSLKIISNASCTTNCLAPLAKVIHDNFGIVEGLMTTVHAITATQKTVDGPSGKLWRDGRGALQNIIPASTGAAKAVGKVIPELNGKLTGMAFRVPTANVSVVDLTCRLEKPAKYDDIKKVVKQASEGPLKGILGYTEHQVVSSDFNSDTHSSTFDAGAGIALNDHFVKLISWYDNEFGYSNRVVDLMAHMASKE

[3] = target: T1, Dual specificity protein phosphatase 6
[4] = target: T2, Tyrosine-protein phosphatase non-receptor type 7 (Homo sapiens, UniProt P35236); assay type: functional
T2 sequence (P35236 whole entry): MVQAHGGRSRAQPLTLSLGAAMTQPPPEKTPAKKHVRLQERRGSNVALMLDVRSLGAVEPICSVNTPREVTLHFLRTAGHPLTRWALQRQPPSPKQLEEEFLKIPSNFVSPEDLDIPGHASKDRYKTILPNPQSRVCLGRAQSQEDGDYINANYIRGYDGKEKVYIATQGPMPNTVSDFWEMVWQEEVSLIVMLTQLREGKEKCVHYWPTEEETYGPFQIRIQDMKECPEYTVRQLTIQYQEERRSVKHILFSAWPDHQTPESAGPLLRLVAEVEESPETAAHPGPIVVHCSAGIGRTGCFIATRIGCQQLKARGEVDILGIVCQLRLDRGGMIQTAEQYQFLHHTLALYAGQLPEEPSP

[5] = target: Nonstructural protein 1 (Influenza A virus, UniProt Q194T2); assay type: functional, Influenza A virus (A/California/07/2009(H1N1))
Nonstructural protein 1, sequence (Q194T2 whole entry): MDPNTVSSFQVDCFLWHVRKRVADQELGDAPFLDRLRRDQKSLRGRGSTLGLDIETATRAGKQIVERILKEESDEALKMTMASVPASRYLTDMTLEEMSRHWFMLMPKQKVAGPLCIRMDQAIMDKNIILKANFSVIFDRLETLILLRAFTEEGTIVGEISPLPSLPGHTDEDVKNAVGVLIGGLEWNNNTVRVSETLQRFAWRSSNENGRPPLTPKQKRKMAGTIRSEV

[6] = tested on: Vero; test: Vero E6 cell cytotoxicity, dose response, cytotoxicity control (AID 540298); assay type: functional; details: Chlorocebus sabaeus
[7] = tested on: MDCK; test: antiviral activity against H1N1 influenza, dose response, cell-based, strain KY136 (AID 540257); assay type: functional; details: Canis lupus familiaris
[8] = tested on: MDCK; test: MDCK cell cytotoxicity, dose response, cytotoxicity control (AID 540296); assay type: functional; details: Canis lupus familiaris
[9] = target: Voltage-gated inwardly rectifying potassium channel KCNH2 (Homo sapiens, UniProt Q12809); details: Potency;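 note: confirmatory quantitative high-throughput screen measuring inhibition of hERG channel activity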
Voltage-gated inwardly rectifying potassium channel KCNH2, sequence (Q12809 whole entry): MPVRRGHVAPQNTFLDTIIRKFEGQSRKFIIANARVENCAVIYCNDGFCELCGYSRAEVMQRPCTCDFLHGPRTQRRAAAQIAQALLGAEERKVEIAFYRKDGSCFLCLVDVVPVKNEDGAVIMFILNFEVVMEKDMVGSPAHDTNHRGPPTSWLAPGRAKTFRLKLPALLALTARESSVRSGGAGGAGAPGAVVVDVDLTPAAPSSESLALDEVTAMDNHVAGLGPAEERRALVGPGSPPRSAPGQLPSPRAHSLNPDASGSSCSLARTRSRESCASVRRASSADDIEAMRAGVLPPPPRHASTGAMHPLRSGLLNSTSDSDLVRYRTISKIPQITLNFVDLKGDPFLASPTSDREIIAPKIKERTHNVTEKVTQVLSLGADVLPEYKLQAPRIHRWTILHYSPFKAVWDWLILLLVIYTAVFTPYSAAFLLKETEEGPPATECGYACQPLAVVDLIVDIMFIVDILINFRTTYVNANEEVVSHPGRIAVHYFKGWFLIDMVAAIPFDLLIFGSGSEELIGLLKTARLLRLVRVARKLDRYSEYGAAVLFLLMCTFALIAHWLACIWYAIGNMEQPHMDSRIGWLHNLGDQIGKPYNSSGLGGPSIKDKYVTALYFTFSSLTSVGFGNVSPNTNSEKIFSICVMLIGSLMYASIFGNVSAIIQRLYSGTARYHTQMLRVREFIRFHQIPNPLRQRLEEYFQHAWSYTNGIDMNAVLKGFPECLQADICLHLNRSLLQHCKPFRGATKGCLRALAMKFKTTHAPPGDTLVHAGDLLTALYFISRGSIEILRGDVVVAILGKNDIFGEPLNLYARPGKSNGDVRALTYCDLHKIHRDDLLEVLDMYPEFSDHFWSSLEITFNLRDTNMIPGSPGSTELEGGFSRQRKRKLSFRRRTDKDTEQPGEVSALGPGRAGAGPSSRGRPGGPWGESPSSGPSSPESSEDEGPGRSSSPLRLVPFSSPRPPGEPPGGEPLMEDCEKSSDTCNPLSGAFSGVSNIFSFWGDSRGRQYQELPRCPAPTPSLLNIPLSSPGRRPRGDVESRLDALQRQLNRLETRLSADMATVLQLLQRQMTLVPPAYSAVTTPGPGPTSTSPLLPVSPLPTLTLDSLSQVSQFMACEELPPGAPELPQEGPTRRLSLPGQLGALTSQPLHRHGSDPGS

[10] = tested on: MEF; test: SAR analysis of small molecule cytotoxicity of MazEF TA System activators in embryonic fibroblast (MEF) cells. [Related pubchem assays (depositor defined):AID504720, AID504743]; assay type: functional; details: Mus musculus
[11] = target: T3, Endoribonuclease toxin MazF (Escherichia coli K-12, UniProt P0AE70); test: SAR analysis of small molecule activators of the MazEF TA System via a fluorescence-based single-stranded RNase assay counterscreen. [Related pubchem assays (depositor defined):AID504720, AID504743]; assay type: functional
T3 sequence (P0AE70 whole entry): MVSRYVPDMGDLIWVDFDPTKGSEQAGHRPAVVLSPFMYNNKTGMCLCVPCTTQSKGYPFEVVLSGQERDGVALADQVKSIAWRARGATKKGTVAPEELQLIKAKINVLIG

[12] = target: T3, Endoribonuclease toxin MazF; test: MazF toxin RNase activators, dose response, biochemical, fluorescence, single-stranded RNA substrate, uHTS hits (AID 588481); assay type: functional
[13] = target: T3, Endoribonuclease toxin MazF; test: MazF endoribonuclease activators, SAR follow-up, biochemical, fluorescence, single-stranded RNA substrate (AID 588603); assay type: functional
[14] = target: T3, Endoribonuclease toxin MazF; test: fluorescent RNA oligo signal without MazF, dose response, counter-screen for MazEF activator project, biochemical, fluorescence, single-stranded RNase substrate (AID 588502); assay type: functional
[15] = tested on: HEK293; test: cells; details: Homo sapiens
[16] = target: T4, High affinity choline transporter 1 (Homo sapiens, UniProt Q9GZV3); test: CHT inhibitors, dose response, cell-based, 5-point CRC, membrane potential dye (AID 504840); assay type: functional
T4 sequence (Q9GZV3 whole entry): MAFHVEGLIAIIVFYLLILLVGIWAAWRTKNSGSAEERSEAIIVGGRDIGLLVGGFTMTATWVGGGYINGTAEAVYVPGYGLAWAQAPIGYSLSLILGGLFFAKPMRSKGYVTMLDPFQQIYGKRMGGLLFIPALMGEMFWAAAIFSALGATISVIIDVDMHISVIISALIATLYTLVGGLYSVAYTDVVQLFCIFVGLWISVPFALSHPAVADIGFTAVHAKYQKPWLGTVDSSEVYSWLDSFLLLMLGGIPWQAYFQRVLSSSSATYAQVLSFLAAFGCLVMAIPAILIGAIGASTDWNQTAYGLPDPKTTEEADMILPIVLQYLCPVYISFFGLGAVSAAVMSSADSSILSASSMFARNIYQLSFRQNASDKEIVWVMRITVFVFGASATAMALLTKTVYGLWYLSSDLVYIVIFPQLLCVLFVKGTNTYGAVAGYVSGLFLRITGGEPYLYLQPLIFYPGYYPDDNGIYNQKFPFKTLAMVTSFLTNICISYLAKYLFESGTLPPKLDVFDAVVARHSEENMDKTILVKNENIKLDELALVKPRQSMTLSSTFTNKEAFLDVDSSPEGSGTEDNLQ

[17] = Luminescent dose response cell-based high throughput screening assay for inhibitors of the Janus kinase 2 mutant JAK2V617F. [Related pubchem assays: 1446 (Primary screen.), 1521 (Confirmation assay.), 1486 (Counter screen.)]; assay type: functional
[18] = tested on: HEK293; test: cells; details: Homo sapiens; remark: listed apart in the source
[19] = target: Delta-type opioid receptor (Homo sapiens, UniProt P41143); test: Counterscreen for agonists of heterodimerization of the mu 1 (OPRM1) and delta 1 (OPRD1) opioid receptors: Luminescence-based cell-based high throughput dose response assay to identify agonists of OPRD1 homodimerization. [Related pubchem assays (depositor defined):AID504326, AID504355, AID504692, AID504904, AID504905]; assay type: functional
Delta-type opioid receptor, sequence (P41143 whole entry): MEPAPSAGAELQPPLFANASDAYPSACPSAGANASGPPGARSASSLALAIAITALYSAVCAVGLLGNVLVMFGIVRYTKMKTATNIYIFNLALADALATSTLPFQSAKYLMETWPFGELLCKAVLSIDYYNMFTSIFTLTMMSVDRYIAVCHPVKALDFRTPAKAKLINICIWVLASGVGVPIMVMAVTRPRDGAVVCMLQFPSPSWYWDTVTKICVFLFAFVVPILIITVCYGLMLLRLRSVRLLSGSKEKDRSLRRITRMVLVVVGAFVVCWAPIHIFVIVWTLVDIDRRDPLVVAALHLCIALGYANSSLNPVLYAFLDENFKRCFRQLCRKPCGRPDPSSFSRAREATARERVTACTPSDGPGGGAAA

[20] = target: Mu-type opioid receptor (Homo sapiens, UniProt P35372); test: Counterscreen for agonists of heterodimerization of the mu 1 (OPRM1) and delta 1 (OPRD1) opioid receptors: Luminescence-based cell-based high throughput dose response assay to identify agonists of OPRM1 homodimerization.; assay type: functional;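 note: U2OS cells expressing OPRM1 and beta-arrestin as split beta-galactosidase partners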
Mu-type opioid receptor, sequence (P35372 whole entry): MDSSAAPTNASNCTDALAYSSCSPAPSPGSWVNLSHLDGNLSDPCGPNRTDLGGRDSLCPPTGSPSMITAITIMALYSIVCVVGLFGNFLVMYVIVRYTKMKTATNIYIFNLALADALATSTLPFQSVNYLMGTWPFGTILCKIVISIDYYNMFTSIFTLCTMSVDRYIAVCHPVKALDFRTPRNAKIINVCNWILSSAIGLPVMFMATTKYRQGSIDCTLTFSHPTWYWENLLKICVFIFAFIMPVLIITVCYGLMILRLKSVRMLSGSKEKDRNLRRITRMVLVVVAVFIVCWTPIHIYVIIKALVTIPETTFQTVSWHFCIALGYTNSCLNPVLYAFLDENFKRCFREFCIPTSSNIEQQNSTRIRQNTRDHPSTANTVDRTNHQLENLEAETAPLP

[21] = target: 5-hydroxytryptamine receptor 5A (Homo sapiens, UniProt P47898); test: Counterscreen for agonists of OPRM1-OPRD1 heterodimerization: luminescence-based cell-based high throughput dose response assay to identify agonists of 5-hydroxytryptamine (serotonin) 5A receptor (HTR5A). [Related pubchem assays (depositor defined):AID504326, AID504355, AID504692, AID504904, AID504905]; assay type: functional
5-hydroxytryptamine receptor 5A, sequence (P47898 whole entry): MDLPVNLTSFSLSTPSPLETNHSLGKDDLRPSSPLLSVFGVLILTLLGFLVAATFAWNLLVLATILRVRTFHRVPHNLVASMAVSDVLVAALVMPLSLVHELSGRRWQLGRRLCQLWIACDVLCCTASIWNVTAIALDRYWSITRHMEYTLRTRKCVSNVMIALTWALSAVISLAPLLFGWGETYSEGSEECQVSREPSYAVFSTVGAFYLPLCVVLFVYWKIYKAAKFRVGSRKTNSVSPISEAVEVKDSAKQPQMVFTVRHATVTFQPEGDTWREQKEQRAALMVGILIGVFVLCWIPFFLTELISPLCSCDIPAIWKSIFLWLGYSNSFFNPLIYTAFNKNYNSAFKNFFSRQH

[22] = tested on: NIH3T3; test: cytotoxicity in NIH-3T3 fibroblasts, dose response, cytotoxicity control for antifungal drug resistance project, cell-based, Alamar Blue, fluconazole, dry powder (AID 488809); assay type: functional; details: Mus musculus
[23] = target: T5, Carboxy-terminal domain RNA polymerase II polypeptide A small phosphatase 1 (Homo sapiens, UniProt Q9GZU7); test: inhibitors of CTDSP1, concentration-response testing, biochemical assay, absorbance-based, actives from ultra-high-throughput screening (AID 540297); assay type: functional
T5 sequence (Q9GZU7 whole entry): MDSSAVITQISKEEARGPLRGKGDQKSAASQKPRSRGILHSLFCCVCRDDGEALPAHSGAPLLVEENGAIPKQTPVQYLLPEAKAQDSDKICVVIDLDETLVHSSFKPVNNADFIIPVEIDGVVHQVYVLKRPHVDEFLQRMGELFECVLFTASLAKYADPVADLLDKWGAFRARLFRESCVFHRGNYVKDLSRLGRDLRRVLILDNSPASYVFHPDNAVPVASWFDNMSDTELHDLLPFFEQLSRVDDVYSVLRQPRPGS

[24] = target: T6, Tyrosyl-DNA phosphodiesterase 2 (Homo sapiens, UniProt O95551); test: human TDP2 enzyme inhibitors, dose response, biochemical, epi absorbance, IC50 (AID 743297)
T6 sequence (O95551 whole entry): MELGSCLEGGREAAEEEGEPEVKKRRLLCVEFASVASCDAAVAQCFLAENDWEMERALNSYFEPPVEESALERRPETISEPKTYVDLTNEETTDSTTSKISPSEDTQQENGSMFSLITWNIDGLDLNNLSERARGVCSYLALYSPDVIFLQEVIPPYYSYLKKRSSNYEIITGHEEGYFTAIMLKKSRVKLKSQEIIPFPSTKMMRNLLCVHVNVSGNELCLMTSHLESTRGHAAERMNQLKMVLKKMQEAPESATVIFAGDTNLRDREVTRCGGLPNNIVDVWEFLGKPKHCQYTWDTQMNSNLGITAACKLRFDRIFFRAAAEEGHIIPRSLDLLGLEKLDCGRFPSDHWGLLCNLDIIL

[25] = target: Hexokinase HKDC1 (Homo sapiens, UniProt Q2TB90); test: HKDC1 hexokinase inhibitors, dose response, biochemical, W721R variant (AID 504729); assay type: functional
Hexokinase HKDC1, sequence (Q2TB90 whole entry): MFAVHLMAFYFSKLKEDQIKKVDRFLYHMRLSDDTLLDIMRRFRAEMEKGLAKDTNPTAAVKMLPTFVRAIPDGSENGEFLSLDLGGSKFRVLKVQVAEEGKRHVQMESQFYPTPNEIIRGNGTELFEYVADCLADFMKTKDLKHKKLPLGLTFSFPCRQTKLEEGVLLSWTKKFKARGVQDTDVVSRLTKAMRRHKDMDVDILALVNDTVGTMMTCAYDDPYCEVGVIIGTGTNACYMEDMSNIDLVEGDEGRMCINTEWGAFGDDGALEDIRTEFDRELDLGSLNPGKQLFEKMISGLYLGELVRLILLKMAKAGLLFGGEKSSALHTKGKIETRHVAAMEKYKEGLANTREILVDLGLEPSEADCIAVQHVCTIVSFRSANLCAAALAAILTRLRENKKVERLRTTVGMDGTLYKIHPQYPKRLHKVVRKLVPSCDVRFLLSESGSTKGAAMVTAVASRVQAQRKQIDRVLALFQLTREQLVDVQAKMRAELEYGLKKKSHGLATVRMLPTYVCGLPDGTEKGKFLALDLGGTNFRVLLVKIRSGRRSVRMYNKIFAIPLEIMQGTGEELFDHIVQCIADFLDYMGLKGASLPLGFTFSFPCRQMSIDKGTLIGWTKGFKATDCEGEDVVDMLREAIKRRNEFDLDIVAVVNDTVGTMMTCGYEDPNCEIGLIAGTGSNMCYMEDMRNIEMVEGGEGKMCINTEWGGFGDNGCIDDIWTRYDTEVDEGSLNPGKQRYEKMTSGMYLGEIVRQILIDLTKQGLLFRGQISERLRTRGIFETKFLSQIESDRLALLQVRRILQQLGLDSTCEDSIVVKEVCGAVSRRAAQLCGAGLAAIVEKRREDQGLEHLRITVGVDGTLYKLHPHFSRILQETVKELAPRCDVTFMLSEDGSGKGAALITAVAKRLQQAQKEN

[26] = target: Beta-adrenergic receptor kinase 1 (Homo sapiens, UniProt P25098); test: aptamer displacement from bead-bound GRK2 – biochemical, cherry pick 1, bead flow cytometry, dose response (AID 504500)
Beta-adrenergic receptor kinase 1, sequence (P25098 whole entry): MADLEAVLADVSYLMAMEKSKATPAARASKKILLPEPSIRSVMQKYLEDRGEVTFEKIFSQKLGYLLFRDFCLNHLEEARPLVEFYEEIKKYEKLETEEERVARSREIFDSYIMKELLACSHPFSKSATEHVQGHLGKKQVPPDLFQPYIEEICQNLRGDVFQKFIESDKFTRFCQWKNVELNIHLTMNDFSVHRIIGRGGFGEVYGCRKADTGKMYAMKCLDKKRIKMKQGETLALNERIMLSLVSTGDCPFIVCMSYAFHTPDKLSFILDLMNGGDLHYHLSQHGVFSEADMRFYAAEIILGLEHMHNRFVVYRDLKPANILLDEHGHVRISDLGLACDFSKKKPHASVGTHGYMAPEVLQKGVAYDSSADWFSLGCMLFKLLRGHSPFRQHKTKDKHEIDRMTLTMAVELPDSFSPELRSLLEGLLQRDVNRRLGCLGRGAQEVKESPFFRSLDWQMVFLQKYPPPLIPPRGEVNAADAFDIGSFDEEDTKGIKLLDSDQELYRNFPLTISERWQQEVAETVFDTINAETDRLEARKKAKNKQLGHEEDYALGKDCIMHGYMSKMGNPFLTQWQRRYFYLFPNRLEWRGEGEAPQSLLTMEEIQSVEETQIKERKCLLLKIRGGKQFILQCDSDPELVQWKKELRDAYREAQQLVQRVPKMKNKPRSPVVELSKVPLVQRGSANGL

[27] = target: T7, Cytochrome P450 1A2 (Homo sapiens, UniProt P05177);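 note: PubChem cytochrome P450 panel assay, CYP1A2 panel member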
T7 sequence (P05177 whole entry): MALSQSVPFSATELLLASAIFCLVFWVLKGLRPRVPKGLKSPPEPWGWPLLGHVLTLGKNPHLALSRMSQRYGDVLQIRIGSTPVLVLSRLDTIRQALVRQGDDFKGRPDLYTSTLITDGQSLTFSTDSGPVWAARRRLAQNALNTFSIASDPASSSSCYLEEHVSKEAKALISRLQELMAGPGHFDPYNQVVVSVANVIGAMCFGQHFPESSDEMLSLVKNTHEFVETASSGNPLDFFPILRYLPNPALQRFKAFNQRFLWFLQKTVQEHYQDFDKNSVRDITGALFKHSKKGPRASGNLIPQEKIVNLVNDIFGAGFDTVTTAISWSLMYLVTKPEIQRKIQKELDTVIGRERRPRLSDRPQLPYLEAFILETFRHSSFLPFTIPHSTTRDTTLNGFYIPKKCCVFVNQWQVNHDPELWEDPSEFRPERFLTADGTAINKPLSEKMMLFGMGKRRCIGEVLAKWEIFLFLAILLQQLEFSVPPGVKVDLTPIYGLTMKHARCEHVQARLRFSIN

[28] = target: Cytochrome P450 2D6 (Homo sapiens, UniProt P10635);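 note: CYP2D6 member of a cytochrome P450 panel assay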
Cytochrome P450 2D6, sequence (P10635 whole entry): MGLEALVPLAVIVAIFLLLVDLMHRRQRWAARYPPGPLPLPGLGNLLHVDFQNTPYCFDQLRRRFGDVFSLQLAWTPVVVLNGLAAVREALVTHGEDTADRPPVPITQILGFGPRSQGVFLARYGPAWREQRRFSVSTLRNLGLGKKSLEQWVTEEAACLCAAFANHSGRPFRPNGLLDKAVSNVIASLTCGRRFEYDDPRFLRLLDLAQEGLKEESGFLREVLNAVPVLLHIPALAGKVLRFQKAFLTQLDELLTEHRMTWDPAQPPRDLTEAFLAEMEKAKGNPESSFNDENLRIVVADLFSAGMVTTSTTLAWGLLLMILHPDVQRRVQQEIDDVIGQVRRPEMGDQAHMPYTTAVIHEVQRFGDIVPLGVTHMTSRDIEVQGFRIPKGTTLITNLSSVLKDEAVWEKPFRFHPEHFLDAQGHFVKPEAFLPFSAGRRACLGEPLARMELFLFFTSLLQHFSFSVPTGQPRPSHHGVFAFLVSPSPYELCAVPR

## C#CCCCCCCCCCCCCCCCCCC
[1]
  IC50: > 100 µM (inactive)
[2]
  IC50: > 100 µM (not active)
[3]
  IC50: > 100 µM (inactive)
[4]
  IC50: > 100 µM (not active)

## Fc1ccc(-[n+]2nc(Nc3ccccc3)sc2-c2c(Cl)cccc2Cl)cc1
[5]
  IC50: 51.2 µM (active)
[6]
  CC50: 23.2 µM (active)
[7]
  IC50: > 100 µM (active)
[8]
  CC50: 11.6 µM (active)

## Brc1ccc(-c2ccccc2)cc1
[9]
  AC50: 39.8 µM (inconclusive)

## O=C(C1=NN[C@@H]2C(=O)N(c3cccc(F)c3)C(=O)[C@H]12)c1ccc2ccccc2n1
[10]
  CC50: > 99 µM (inactive)
[11]
  EC50: > 99 µM (inactive)
[12]
  EC50: 20.5 µM (inactive)
[13]
  EC50: 24.4 µM (inactive)
[14]
  EC50: > 99 µM (inactive)

## COc1ccc(C2=Nn3c(nnc3C3CCCCC3)SC2)cc1OC
[15]
  EC50: > 59.6 µM (inactive)
[16]
  IC50: 1.74 µM (active)
[17]
  IC50: 3.41 µM (active)
[18]
  EC50: > 59.6 µM (inactive)

## Cc1ccc(C)c(-n2cc(CNC(C)Cn3cncn3)c(-c3ccccc3)n2)c1 (centres undefined)
[19]
  EC50: > 92.5 µM (inactive)
[20]
  EC50: > 92.5 µM (inactive)
[21]
  EC50: > 92.5 µM (inactive)

## CCOC(=O)c1nn(Cc2ccc(Cl)cc2)c2ccccc12
[22]
  AC50: 39 µM (active)

## O=C(O)c1ccccc1-c1c2cc(I)c(=O)c(I)c-2oc2c(I)c(O)c(I)cc12
[5]
  IC50: 19.4 µM (active)
[23]
  IC50: 1.89 µM (active)
[24]
  IC50: > 14.3 µM (inactive) and 35.7 µM (inactive)
[25]
  IC50: 14.4 µM (active)
[26]
  EC50: 14.7 µM (inactive)

## CS(=O)(=O)O.Cc1ccc(N(CC2=NCCN2)c2cccc(O)c2)cc1 [PHENTOLAMINE MESYLATE]
[27]
  AC50: inactive
[28]
  AC50: 3.16 µM (active)
